Laboratory results as given in patent publication US20220079924A1, “GLUCOCORTICOID RECEPTOR MODULATORS” (ORIC Pharmaceuticals, Inc., priority 2018, published 2022).

Biological target: T1, GR (Homo sapiens, UniProt P04150)
T1 construct: expressed in transfected cells; host or cells: CHO-K1 (CHO-K1-GR-MMTV-Luc reporter cells)
T1 sequence (P04150 1-777): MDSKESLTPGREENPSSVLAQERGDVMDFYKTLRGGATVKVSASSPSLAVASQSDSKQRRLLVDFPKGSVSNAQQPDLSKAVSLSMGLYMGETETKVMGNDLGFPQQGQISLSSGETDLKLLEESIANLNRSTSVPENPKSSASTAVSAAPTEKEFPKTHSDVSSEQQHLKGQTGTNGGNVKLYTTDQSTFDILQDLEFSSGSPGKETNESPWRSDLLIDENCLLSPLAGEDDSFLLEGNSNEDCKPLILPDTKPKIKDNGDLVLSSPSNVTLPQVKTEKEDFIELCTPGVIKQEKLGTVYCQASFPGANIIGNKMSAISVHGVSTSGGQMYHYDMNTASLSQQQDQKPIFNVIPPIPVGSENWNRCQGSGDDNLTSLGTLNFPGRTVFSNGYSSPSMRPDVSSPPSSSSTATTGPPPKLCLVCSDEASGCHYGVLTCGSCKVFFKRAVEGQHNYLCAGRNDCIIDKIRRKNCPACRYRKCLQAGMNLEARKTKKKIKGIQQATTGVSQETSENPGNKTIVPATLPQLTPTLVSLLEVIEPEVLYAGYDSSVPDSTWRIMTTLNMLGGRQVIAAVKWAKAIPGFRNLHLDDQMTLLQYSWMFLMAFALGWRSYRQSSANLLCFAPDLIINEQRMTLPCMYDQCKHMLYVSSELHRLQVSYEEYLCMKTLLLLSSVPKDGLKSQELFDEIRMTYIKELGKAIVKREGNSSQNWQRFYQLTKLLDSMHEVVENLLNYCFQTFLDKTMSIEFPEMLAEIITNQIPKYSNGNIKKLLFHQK
Test: In Vitro GR Luciferase Reporter Assay (antagonist assay)
Format: cell-based
Details: CHO-K1-GR-MMTV-Luc reporter cells, 10 nM Dexamethasone, 18-24 hours
Description: Example A: In Vitro GR Luciferase Reporter Assay
Cell Line: CHO-K1-GR-MMTV-Luc reporter cells
Culture Media: DMEM (with phenol red)+10% FBS
Assay Media: DMEM (without phenol red)+10% CSS
Culture CHO-K1-GR-MMTV-Luc reporter cells in T175 flasks in Culture Media at conditions less than 90% confluence.
Using Bravo (Agilent) liquid handler:
200× DMSO 1:3 serial dilutions of control and test compounds in 96-well non-sterile V bottom plate in DMSO, 12 points for each compound were prepared.
Prepared 5× compound serial dilutions: Add 97.5 μL/well of Assay Media into 96-well non-sterile V bottom plate then added 2.5 ul of 200× concentration of compounds and mix well.
Seeded cells for Antagonist Assay: 5200 CHO-K1-GR-MMTV-Luc reporter cells were seeded in Greiner #781080 flat clear bottom 384-well white TC plate in 20 ul of Assay Media containing 12.5 nM Dexamethasone (final concentration=10 nM).
Added compounds: 5 μl of 5× compounds were added to appropriate wells and followed with a quick spin (1000 rpm, 10 sec) to bring media and cells to the bottom of plate. The plates were covered with SealMate film to avoid evaporation and placed in 37° C. incubator for approximately 18-24 hours.
Read plates: Equilibrate appropriate amount of Promega OneGlo luciferase reagent to room temperature. Remove the plates from incubator and add 25 uL of OneGlo reagent/well by Bravo and read the plates on Tecan Spark plate reader within 15 minutes.
The ability of the compounds disclosed herein to inhibit GR activity was quantified and the respective IC50 value was determined. Table 1 provides the cellular IC50 values of compounds disclosed herein.

Row | IC50 | SMILES
1 | ≤ 100 nM | CC(C)N([C@H]1CCC2=Cc3c(cnn3-c3ccc(F)cn3)C[C@]2(C(=O)c2cc(C(F)(F)F)ccn2)C1)S(=O)(=O)c1cnn(C)c1 [Example 6, N-((4aS,6S)-1-(5-Fluoropyridin-2-yl)-4a-(4-(trifluoromethyl)picolinoyl)-4,4a,5,6,7,8-hexahydro-1H-benzo[f]indazol-6-yl)-N-isopropyl-1-methyl-1H-pyrazole-4-sulfonamide]
2 | ≤ 100 nM | O=C(c1cc(C(F)(F)F)ccn1)[C@]12Cc3cnn(-c4ccc(F)nc4)c3C=C1CC[C@H](N(C1CC1)S(=O)(=O)c1ccc(F)cc1)C2 [Example 19]
3 | ≤ 100 nM | Cn1cc(S(=O)(=O)N(C2CC2)[C@H]2CCC3=Cc4c(cnn4-c4ccnc(F)c4)C[C@]3(C(=O)c3cc(C(F)(F)F)ccn3)C2)cn1 [Example 39]
4 | ≤ 100 nM | Cn1cnc(S(=O)(=O)N([C@H]2CCC3=Cc4c(cnn4-c4ccc(F)cc4)C[C@]3(C(=O)c3cc(Cl)ccn3)C2)[C@H]2C[C@](O)(C(F)(F)F)C2)n1 [Example 44]
5 | ≤ 100 nM | Cn1cc(S(=O)(=O)C[C@H]2CCC3=Cc4c(cnn4-c4ccc(F)cc4)C[C@]3(C(=O)c3cc(Cl)ccn3)C2)cn1 [Example 26]
6 | ≤ 100 nM | Cn1cnc(S(=O)(=O)N(CC(F)F)[C@H]2CCC3=Cc4c(cnn4-c4ccc(F)cc4)C[C@]3(C(=O)c3cc(Cl)ccn3)C2)n1 [Example 31]
7 | ≤ 100 nM | Cn1cnc(S(=O)(=O)N(C2CC2)[C@H]2CCC3=Cc4c(cnn4-c4ccc(F)cc4)C[C@]3(C(=O)c3csc(C(F)(F)F)n3)C2)n1 [Example 22]
8 | ≤ 100 nM | CCN([C@H]1CCC2=Cc3c(cnn3-c3ccc(F)nc3)C[C@]2(C(=O)c2cc(F)ccn2)C1)S(=O)(=O)c1ncn(C)n1 [Example 94]
9 | ≤ 100 nM | Cn1cnc(S(=O)(=O)N([C@H]2CCC3=Cc4c(cnn4-c4ccc(F)cc4)C[C@]3(C(=O)c3ncc(C(F)(F)F)s3)C2)[C@H]2C[C@@H](C#N)C2)n1 [Example 14]
10 | ≤ 100 nM | Cn1cnc(S(=O)(=O)[C@H]2CCC3=Cc4c(cnn4-c4ccc(F)cc4)C[C@]3(C(=O)c3ccc(C4CC4)cn3)C2)n1 [Example 7, (5-Cyclopropylpyridin-2-yl)((4aS,6S)-1-(4-fluorophenyl)-6-((1-methyl-1H-1,2,4-triazol-3-yl)sulfonyl)-1,4,5,6,7,8-hexahydro-4aH-benzo[f]indazol-4a-yl)methanone]
11 | ≤ 100 nM | CN(C)C(=O)CN([C@H]1CCC2=Cc3c(cnn3-c3ccc(F)cc3)C[C@]2(C(=O)c2cc(C(F)(F)F)ccn2)C1)S(=O)(=O)c1ccn(C)n1 [Example 21]
12 | ≤ 100 nM | C[C@H]([C@H]1CCC2=Cc3c(cnn3-c3ccc(F)cc3)C[C@]2(C(=O)c2cc(F)ccn2)C1)S(=O)(=O)c1cnn(C)c1 [Example 62]
13 | > 1000 nM | Cn1cc(-n2ncc3c2C=C2CC[C@H](N(C4CC4)S(=O)(=O)c4ccc(F)cc4)C[C@@]2(C(=O)c2cc(C(F)(F)F)ccn2)C3)ccc1=O [Example 73]
14 | ≤ 100 nM | CC(C)N([C@H]1CCC2=Cc3c(cnn3-c3ccc(F)nc3)C[C@]2(C(=O)c2cc(C(F)(F)F)ccn2)C1)S(=O)(=O)c1cnn(C)c1 [Example 69]
15 | ≤ 100 nM | Cn1cc(S(=O)(=O)N(C2CC(F)(F)C2)[C@H]2CCC3=Cc4c(cnn4-c4ccc(F)cc4)C[C@]3(C(=O)c3cc(Cl)ccn3)C2)cn1 [Example 13]
16 | ≤ 100 nM | Cn1cc(S(=O)(=O)N(CCF)[C@H]2CCC3=Cc4c(cnn4-c4ccc(F)cc4)C[C@]3(C(=O)c3cc(Cl)ccn3)C2)cn1 [Example 29]
17 | ≤ 100 nM | C[C@H]([C@H]1CCC2=Cc3c(cnn3-c3ccc(F)cc3)C[C@]2(C(=O)c2ncc(C(C)(C)C)s2)C1)S(=O)(=O)c1cnn(C)c1 [Example 59]
18 | ≤ 100 nM | C[C@H]([C@H]1CCC2=Cc3c(cnn3-c3ccc(F)cc3)C[C@]2(C(=O)c2cc(F)ccn2)C1)S(=O)(=O)c1ncn(C)n1 [Example 83]
19 | ≤ 100 nM | Cn1ncnc1S(=O)(=O)[C@H]1CCC2=Cc3c(cnn3-c3ccc(F)cc3)C[C@]2(C(=O)c2cc(C(F)(F)F)ccn2)C1 [Example 17]
20 | ≤ 100 nM | Cn1cc(S(=O)(=O)N(C2CC2)[C@H]2CCC3=Cc4c(cnn4-c4ccc(F)cn4)C[C@]3(C(=O)c3cc(C(F)(F)F)ccn3)C2)cn1 [Example 74]
21 | ≤ 100 nM | O=C(c1cc(Cl)ccn1)[C@]12Cc3cnn(-c4ccc(F)cc4)c3C=C1CC[C@H](N(CC(F)F)S(=O)(=O)c1ccc(F)cc1)C2 [Example 28]
22 | ≤ 100 nM | Cn1ccc(S(=O)(=O)C(C)(C)[C@H]2CCC3=Cc4c(cnn4-c4ccc(F)cc4)C[C@]3(C(=O)c3cc(F)ccn3)C2)n1 [Example 8, ((4aR,6S)-1-(4-Fluorophenyl)-6-(2-((1-methyl-1H-pyrazol-3-yl)sulfonyl)propan-2-yl)-1,4,5,6,7,8-hexahydro-4aH-benzo[f]indazol-4a-yl)(4-fluoropyridin-2-yl)methanone]
23 | ≤ 100 nM | CC(C)N([C@H]1CCC2=Cc3c(cnn3-c3ccc(F)nc3)C[C@]2(C(=O)c2cc(C(F)(F)F)ccn2)C1)S(=O)(=O)c1ncn(C)n1 [Example 51]
24 | ≤ 100 nM | Cn1ccc(S(=O)(=O)N(C2CC2)[C@H]2CCC3=Cc4c(cnn4-c4ccc(F)cc4)C[C@]3(C(=O)c3cc(F)ccn3)C2)c1 [Example 58]
25 | ≤ 100 nM | Cn1cnc(S(=O)(=O)N(CC(F)F)[C@H]2CCC3=Cc4c(cnn4-c4ccc(F)cc4)C[C@]3(C(=O)c3cc(F)ccn3)C2)n1 [Example 30]
26 | ≤ 100 nM | C[C@@H]([C@H]1CCC2=Cc3c(cnn3-c3ccc(F)cc3)C[C@]2(C(=O)c2ncc(C(F)(F)F)s2)C1)S(=O)(=O)c1ncn(C)n1 [Example 57]
27 | ≤ 100 nM | O=C(c1cc(Cl)ccn1)[C@]12Cc3cnn(-c4ccc(F)cc4)c3C=C1CC[C@H](N(CC(F)(F)F)S(=O)(=O)c1ccc(F)cc1)C2 [Example 53]
28 | ≤ 100 nM | Cn1cnc(S(=O)(=O)N(C2CC2)[C@H]2CCC3=Cc4c(cnn4-c4ccnc(F)c4)C[C@]3(C(=O)c3cc(C(F)(F)F)ccn3)C2)n1 [Example 40]
